Patent publication US20250345439A1, “CHONDROITIN SULFATE BIOGENIC POLYAMINE COMPLEX, PREPARATION METHOD THEREOF AND USE THEREOF” (priority 2022, published 2025)

System: rat rheumatoid arthritis model
[1] = venous blood, day 14 after administration

SMILES: CN(Cc1cnc2nc(N)nc(N)c2n1)c1ccc(C(=O)N[C@@H](CCC(=O)O)C(=O)O)cc1 [MTX, methotrexate]
- degrees of swelling in the toes of rats (CSX of Example 2 200 mg/kg gavage daily, MTX 0.2 mg/kg gavage every other day): showed the desired effect of inhibiting toe swelling
- CT of ankle joint parts of rats (CSX of Example 2, MTX positive control): the degree of joint injury was more serious than that in the rats of the drug group (CSX)
- bone surface (BS) of the ankle joint (CT): decreased significantly
- absolute leukocyte count vs model group [1]: no statistical difference
- absolute lymphocyte count vs model group [1]: significantly decreased
- absolute neutrophil count vs model group [1]: significantly decreased
